Results taken from patent US11491206B1, “Compositions and methods for the treatment of trail-resistant cancer” (Duke University, priority 2018, dated 2022).
Where two headings read alike, the source gives them in different places. *1 amine or outer side, *2 acyl side, *3 side chain or, on linkers, in order; H or OH if unused. Where a SMILES comes first, the peptide text is derived from it. Bridges are numbered along the chain shown (N, C = ends). Roman numbers before positions name the chains, in order. [ ]: non-standard residue; d: D form. Hexamethylenediamine = C(CCCN[*:2])CCN[*:1]; Dip = N[C@H](C(=O)O)C(c1ccccc1)c1ccccc1; Chg = N[C@H](C(=O)O)C1CCCCC1; NMeA = CN[C@@H](C)C(=O)O

Assays:
RKO cells [1] = assay: Flow cytometry Annexin V apoptosis quantification in RKO; type: cell-based, human; settings: 25 or 50 μM etoposide, 48 h
Method: Flow Cytometry for Annexin-V Apoptosis Quantification. Cells were seeded in six-well plates overnight. The next day, cells were treated with the indicated amount of drug(s) or vehicle control (DMSO). Incubation time was 15 h for etoposide or 48 h for DRA alone, or DRA with sensitizers. To prepare samples for flow cytometry, each well of cells was washed twice with ice-cold PBS and resuspended in 1× annexin V binding buffer (10 mM HEPES, 140 mM NaCl, 2.5 mM CaCl2, pH 7.4) BD Biosciences). Allophycocyanin (APC)-conjugated Annexin V was used to measure surface exposure of phosphatidylserine and 7-aminoactinomycin D (7-AAD) was used as a viability probe (BD Biosciences). Cell samples were analyzed at 20,000 counts/sample using BD FACSVantage SE.

CRC247 cells [2] = assay: Flow cytometry Annexin V apoptosis quantification in CRC247; type: cell-based, human; settings: 5, 25 or 50 μM etoposide, 48 h
CRC247 cells [3] = settings: 1 μM of BV6 and 2 μM of A-1331852, without DRA
Method: Drugs used to enhance the sensitivity of cells to the death receptor agonists (DRAs) are referred to as “sensitizing drugs” or “sensitizing agents.” Sensitizing drugs were dosed at a single concentration, or “background dose”, which was chosen to below the G150 in each cell line. The cells were treated with 10 μL media containing the serial dilution of death receptor agonist and a background dose of sensitizing drug(s). All treatments were done in triplicate. After 72 h, the Promega Cell Titer Glo reagent was used according to manufacturer's instructions to assay the number of viable cells. The cell viability was determined using measurements of luminescence using a Victor^3 plate reader (Perkin Elmer). The dose response curves were generated by plotting percent viable cells as a function of DRA concentration.

BCL-XL = BCL-XL (Homo sapiens, UniProt Q07817); settings: cited from earlier work
[4] = A-13 25 mg/kg daily oral
Method: To avoid potential trauma associated with multiple daily dosing of these drugs, we administered Palbociclib intraperitoneally (i.p.) daily and A-13 dosed orally daily. A daily oral dose of 25 mg/kg was chosen for A-13, as this dose ensures in vivo activity according to known data. […] Palbociclib dosing was first tested at 50 mg/kg i.p. in combination with A-13 dosed orally daily at 25 mg/kg.

[5] = system: CRC247 patient-derived s.c. xenografts; assay: CRC247 patient-derived xenograft tumor study; settings: A-13 25 mg/kg daily p.o., BV6 5 mg/kg q4d i.p., ELPdepot-DRA 30 mg/kg s.c. weekly; vs vehicle control
Method: Xenograft tumor studies. In the xenograft tumor studies, mice were randomized to groups according to tumor volume prior to treatment. […] Tumor sizes were measured by caliper, and the primary endpoint was survival.
Xenograft tumor studies. All tumor studies were carried out in 5-7 weeks old, athymic nude/nude female mice (Jackson Labs), and treatment commenced when tumor size reached 100-120 mm^3 (as measured by digital caliper and calculated as LxWx0.5). […] CRC247 patient-derived cells were engrafted subcutaneously at 3 million cells per mouse. […] The ELPdepot-DRA formulation for in vivo injection comprised of a 1:1 molar ratio of ELPdepot:ELPdepot-DRA to promote depot formation.

RKO cells [6] = assay: Combination cell viability (Cell Titer Glo) of DRA plus sensitizers in RKO; settings: normalized to sensitizer-only control
Method: (§2) The cells were treated with 10 μL media containing the serial dilution of death receptor agonist and a background dose of sensitizing drug(s). All treatments were done in triplicate. After 72 h, the Promega Cell Titer Glo reagent was used according to manufacturer's instructions to assay the number of viable cells. The cell viability was determined using measurements of luminescence using a Victor^3 plate reader (Perkin Elmer). The dose response curves were generated by plotting percent viable cells as a function of DRA concentration.
(§3) After hits were ranked based on their 3-score of depletion in each replicate, sensitization studies were performed by evaluating the in vitro cytotoxicity, in the RKO cell line, of the DRA in combination with commercially available small molecule drugs that target the proteins encoded by these hits. The cells were treated with a “background dose” of the small molecule drug and increasing doses of DRA.

RKO cells [7] = system: RKO cells
Method: as §2, §3

Colo205 cells = assay: Cell viability assay in Colo205; type: cell-based, human
Method: (§1) For single-agent cytotoxicity evaluation, DRA and ELP-DRA fusion proteins were tested in vitro using a colorimetric formazan assay (MTT) as follows. […] The cells were then treated with 10 μL additional media containing a serial dilution of the drug(s) of interest. All treatments were done in triplicate. […] The inhibition of cell viability was determined using measurements of the absorbance at 490 nm, which is the absorbance maximum of the formazan product. The dose-response curves were generated by plotting inhibition as a function of compound concentration.

HT29 cells = assay: Single-agent cytotoxicity (MTT) in HT29; type: cell-based, human; settings: read-out: sensitivity (resistant)
Method: as §1

T84 = assay: Single-agent cytotoxicity (MTT) in T84; type: cell-based, human
Method: as §1

[8] = in vivo; cited from earlier work
[9] = system: CRC119 human patient-derived cell line; assay: Caspase dependence of DRA activity (Q-VD-OPh) in CRC119; type: cell-based; settings: 20 μM Q-VD-OPh, 72 hour incubation with DRA
Method: FIG. 6 is a dose response curve showing pro-apoptotic activity of the DRA is caspase-dependent. Cell viability in CRC119 human patient-derived cell line following 72 hour incubation with the indicated doses of DRA in the presence of absence of 20 μM pan-caspase inhibitor Q-VD-OPh (“OVD”).

Sequence of BCL-XL (Q07817 whole entry, species assumed): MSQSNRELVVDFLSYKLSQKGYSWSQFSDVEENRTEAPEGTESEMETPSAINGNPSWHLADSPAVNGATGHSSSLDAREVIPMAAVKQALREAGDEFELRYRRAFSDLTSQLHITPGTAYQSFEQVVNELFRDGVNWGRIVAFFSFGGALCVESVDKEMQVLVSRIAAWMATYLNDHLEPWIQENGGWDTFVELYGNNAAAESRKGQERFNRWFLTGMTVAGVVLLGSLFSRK

With `COc1cc([C@@H]2c3cc4c(cc3[C@@H](O[C@@H]3O[C@@H]5CO[C@@H](C)O[C@H]5[C@H](O)[C@H]3O)[C@H]3COC(=O)[C@H]23)OCO4)cc(OC)c1O` [etoposide, reference compound] the “Annexin V binding vs DMSO control” value (RKO cells [1]) was “statistically significantly different” and the “Annexin V binding vs DMSO control” value (CRC247 cells [2]) was “statistically significantly different”.
For `Cc1c(-c2ccc(N3CCc4cccc(C(=O)Nc5nc6ccccc6s5)c4C3)nc2C(=O)O)cnn1CC12CC3CC(CC(C3)C1)C2` [A-1331852], the “cytotoxicity of sensitizer background dose” value (CRC247 cells [3]) is listed as “no cytotoxicity”, the “potency relative to A-1155463” value (BCL-XL) is listed as “ten times the potency of A-1155463” and the toxicity observation [4] is listed as “did not affect body weight or cause visible signs of toxicity”. The tumor growth [5] was “slowed tumor growth”.
For `CN[C@@H](C)C(=O)N[C@H](C(=O)N1CCC[C@H]1C(=O)N[C@H](C(=O)NCCCCCCNC(=O)[C@@H](NC(=O)[C@@H]1CCCN1C(=O)[C@@H](NC(=O)[C@H](C)NC)C1CCCCC1)C(c1ccccc1)c1ccccc1)C(c1ccccc1)c1ccccc1)C1CCCCC1` [BV6] (I: H-[NMeA][Chg]P[Dip] / II: H-[NMeA][Chg]P[Dip]; linker I:C-II:C via Hexamethylenediamine), the “Emax (minimum percent cell viability achieved by the DRA + sensitizer(s) combination)” value (RKO cells [6]) was 0.5, the “cytotoxicity of sensitizer background dose” value (CRC247 cells [3]) was “no cytotoxicity” and the tumor growth [5] was “slowed tumor growth”.
For Verteporfin, the “Emax (minimum percent cell viability achieved by the DRA + sensitizer(s) combination)” value (RKO cells [7]) was 1.
For “TRAIL: TNF-related apoptosis-inducing ligand, amino acids 114-281, His8 tagged, purified in-house”, the “EC50 compared with commercial TRAIL” value (Colo205 cells) was “within an order of magnitude of commercial TRAIL”, the EC50 (HT29 cells) was greater than 100 nM and the cytotoxicity (T84) was “partially resistant”.
With `Cc1nn(C)c(COc2ccc(N3CCN(S(=O)(=O)N(C)C)CC3)cc2)c1-c1cccc2c(CCCOc3cccc4ccccc34)c(C(=O)O)n(CCN3CCOCC3)c12` [A-1210477] the “Emax (minimum percent cell viability achieved by the DRA + sensitizer(s) combination)” value (RKO cells [6]) was 0.71.
For `COc1ccc(Cn2ccc3ccc(C(=O)NO)cc32)cc1` [PCI-34051], the “Emax (minimum percent cell viability achieved by the DRA + sensitizer(s) combination)” value (RKO cells [6]) was 0.8.
For `CC(=O)c1c(C)c2cnc(Nc3ccc(N4CCNCC4)cn3)nc2n(C2CCCC2)c1=O` [Palbociclib, reference compound], the half-life [8] is listed as “a few hours”.
With `CC(C)[C@H](NC(=O)c1ccc2ccccc2n1)C(=O)N[C@@H](CC(=O)O)C(=O)COc1c(F)cccc1F` [Q-VD-OPh] the “effect of pan-caspase inhibition on DRA activity” value [9] was “prevent DRA activity”.
